What was measured:
[1] = test system: Ancylostoma caninum infective larvae; assay: In vitro bioassay of infective larvae, immobilization and lethal doses (eosin, Probit); assay type: cell-based; conditions: for 24 hr ID50 ± 95% confidence intervals: immobilize 50%; for 24 hr ID90 ± 95% confidence intervals: immobilize 90%
Experimental: (§1) Strongyloides stercoralis infective larvae were harvested from charcoal coprocultures in nematode saline solution. The larvae were supplied by the Parasitology Laboratory, Department of Pathobiology, University of Pennsylvania. The strain of larvae was a human strain of the parasitic nematode that had been maintained for over ten years in canines by daily prednisolone treatment (2 mg/kg per os, once daily. Parastrongyloides trichosuri and Ancylostoma caninum infective larvae were also supplied by the same source as for S. stercoralis. Haemonchus contortus infective larvae were harvested from charcoal coprocultures in nematode saline solution prepared from infected sheep feces obtained from Merck Parasites Laboratory.
(§2) The 24 hr 50% and 90% immobilization doses (ID50 and ID90), and 50% and 90% lethal doses (LD50 and LD90) of eryngial (mg/ml) were investigated in vitro using infective larvae of all four parasitic nematodes. Each species was exposed to a range of eryngial dilutions by adding known volumes of a homogeneous ‘wormy’ solution (infective larvae in nematode saline solution) to known volumes of an eryngial stock suspension (10 mg/ml of nematode saline solution). Each dilution, including the control (0 mg/ml eryngial), was prepared in triplicate and also contained eosin (0.01%, w/v), which was used as an indicator of mortality, and Triton X-100 (1.0%, v/v).
(§3) Using S. stercoralis, P. trichosuri, H. contortus and A. caninum infective larvae, eryngial dilutions, excluding the controls, ranged from 0.05 to 1.15 mg/ml; 0.01 to 1.0 mg/ml; 0.5 to 2.0 mg/ml; and 0.8 to 3.0 mg/ml, respectively. Sub-sample (10 μl) counts of larvae that were mobile, immobile but not stained and stained, were done at the start of each bioassay and at 24 hr intervals for two days. Each sub-sample contained approximately 50 infective larvae.
(§4) Probit analysis was used to determine 24 hr and 48 hr immobilization and lethal doses for eryngial and ivermectin, respectively.

[2] = test system: Parastrongyloides trichosuri infective larvae; assay: as above; assay type: cell-based; conditions: for 24 hr ID50 ± 95% confidence intervals / 24 hr ID90 ± 95% confidence intervals / 24 hr LD50 ± 95% confidence intervals / 24 hr LD90 ± 95% confidence intervals: P. trichosuri infective larvae, 24 hr in vitro; for 24 hr ID50 ± 95% confidence intervals: immobilize 50%; for 24 hr ID90 ± 95% confidence intervals: immobilize 90%; for 24 hr LD50 ± 95% confidence intervals: kill 50%; for 24 hr LD90 ± 95% confidence intervals: kill 90%
Experimental: as §1, §2, §3, §4

T. avium trypomastigotes = assay: Short-term behavioral study (swimming behavior and maneuverability); assay type: cell-based, Trypanosoma avium; conditions: 75 μl eryngial (1%) and Triton X-100 (0.04%) added to 75 μl T. avium; observed at 15-minute intervals for 1 hr
Experimental: A short-term behavioral study also was conducted by adding 75 μl of eryngial (1%) and Triton X-100 (0.04%) to 75 μl of L.N.S. with T. avium (1.0×10^5 trypomastigotes/ml). The swimming behavior and maneuverability of the organisms were observed microscopically in triplicate samples at 15-minute intervals for 1 hr. This was recorded with a digital video camera.

Pseudomonas aeruginosa = assay: Antibacterial MIC, 96 well broth dilution; assay type: cell-based; conditions: P. aeruginosa (gram-negative), 24 hr, 0.02% Triton X-100, highest concentration tested 10 mg/ml
Experimental: (§5) Bacterial cultures were obtained from the American Type Culture Collection (ATCC), except for Streptococcus pyogenes, which was started from a Difco Bactrol disc. The other organisms were Enterococcus faecalis, Staphylococcus aureus, Escherichia coli, Salmonella typhimurium and Pseudomonas aeruginosa. Cultures were grown in Luria-Bertani (LB) broth. Fungi were obtained from Carolina Biological Supply Company (Aspergillus niger, Candida albicans and Cryptococcus neoformans); Presque Isle Cultures, Erie Pa. (Microsporum gypseum); or from ATCC (Penicillium marneffei). Fungal cultures were maintained in Sabouraud dextrose broth (SDB) or agar (SDA). All media components came from Difco.
(§6) Tests were done in flat-bottomed 96 well cell culture plates (Costar). All samples were done in duplicate. Eryngial was suspended in culture medium plus 0.04% Triton-X to make a 2% (20 mg/ml) suspension, which was passed through a 0.22 μm filter to make a uniform emulsion. Serial doubling dilutions of eryngial in culture medium plus 0.04% Triton-X were prepared, and 75 μl was added to each well. 75 μl of cell or spore suspensions in culture medium also were added to each well. The final concentration of Triton-X was 0.02%, and the final concentration of eryngial was 1% (10 mg/ml) at the highest concentration tested.
(§7) Overnight bacterial cultures in LB medium were diluted into fresh LB to an OD600 of 0.02 to 0.03, and then diluted 1000-fold again in LB. […] Blank wells for each concentration of eryngial were prepared with plain culture medium added.
(§8) The 96 well plates were incubated at 37° for 24 hr (in a candle jar for S. pyogenes), and the OD630 was read on an EL800 universal microplate reader (Bio-Tek Instruments). Readings from duplicate wells were averaged, and readings from duplicate blank wells for each concentration of eryngial were subtracted to generate the final values. The minimum inhibitory concentration (MIC, μg/ml) was defined as the well with the highest dilution of eryngial in which no growth was observed.

Escherichia coli = assay: Antibacterial MIC, 96 well broth dilution; assay type: cell-based; conditions: E. coli (gram-negative), 24 hr, 0.02% Triton X-100, highest concentration tested 10 mg/ml
Experimental: as §5, §6, §7, §8

Salmonella typhimurium = assay: Antibacterial MIC, 96 well broth dilution; assay type: cell-based; conditions: S. typhimurium (gram-negative), 24 hr, 0.02% Triton X-100, highest concentration tested 10 mg/ml
Experimental: as §5, §6, §7, §8

[3] = A. caninum infective larvae, 24 hr in vitro
[4] = A. caninum infective larvae, 24 hr in vitro, listed as eryngial

With `CCCCCCCCC/C=C/C=O` [Eryngial, trans-2-dodecenal] the “increase in the dose required to immobilize 50%” value ([1]; 24 hr ID50, A. caninum relative to P. trichosuri) was 41.9 fold, the “24 hr ID50 ± 95% confidence intervals” value [1, 3] was 0.545 (0.440-0.641) mg/ml and the “24 hr ID50 ± 95% confidence intervals” value [1, 4] was 0.545 mg/mL. For the same molecule, the “24 hr ID90 ± 95% confidence intervals” value [1, 3] was 0.867 (0.717-1.445) mg/ml, the “24 hr ID90 ± 95% confidence intervals” value [1, 4] was 0.867 mg/mL and the “24 hr LD50 ± 95% confidence intervals” value ([1]; A. caninum infective larvae, kill 50%, 24 hr in vitro) was 0.608 (0.429-0.765) mg/ml. The “24 hr LD90 ± 95% confidence intervals” value ([1]; A. caninum infective larvae, kill 90%, 24 hr in vitro) was 1.178 (0.913-2.100) mg/ml, the “increased sensitivity to eryngial (90% immobilization)” value ([2]; 24 hr ID90, P. trichosuri compared to A. caninum) was 9.4 fold and the “increased sensitivity to eryngial (90% immobilization)” value ([2]; 24 hr ID90, P. trichosuri over H. contortus) was 8.5 fold. The “increase in sensitivity to eryngial (50% mortality doses)” value ([2]; 24 hr LD50, P. trichosuri over A. caninum) was 5.8 fold, the “increase in sensitivity to eryngial (50% mortality doses)” value ([2]; 24 hr LD50, P. trichosuri over H. contortus) was 17.1 fold and the “increased sensitivity to eryngial (90% mortality doses)” value ([2]; 24 hr LD90, P. trichosuri over A. caninum) was 4 fold. The “increased sensitivity to eryngial (90% mortality doses)” value ([2]; 24 hr LD90, P. trichosuri over H. contortus) was 9.3 fold, the “24 hr ID50 ± 95% confidence intervals” value [2] was 0.013 (0.007-0.030) mg/ml and the “24 hr ID50 ± 95% confidence intervals” value ([2]; listed as eryngial) was 0.013 mg/mL. For the same molecule, the “24 hr ID90 ± 95% confidence intervals” value [2] was 0.092 (0.051-0.201) mg/ml, the “24 hr ID90 ± 95% confidence intervals” value ([2]; listed as eryngial) was 0.092 mg/mL and the “24 hr LD50 ± 95% confidence intervals” value [2] was 0.105 (0.084-0.133) mg/ml. The “24 hr LD50 ± 95% confidence intervals” value ([2]; listed as eryngial) was 0.105 mg/mL, the “24 hr LD90 ± 95% confidence intervals” value [2] was 0.297 (0.214-0.515) mg/ml and the “24 hr LD90 ± 95% confidence intervals” value ([2]; listed as eryngial) was 0.297 mg/mL. The “swimming behavior and maneuverability of trypomastigotes” value (T. avium trypomastigotes) was “movement was completely stopped”, the inhibited by eryngial (Pseudomonas aeruginosa) was “none” and the inhibited by eryngial (Escherichia coli) was “none”. The inhibited by eryngial (Salmonella typhimurium) was “none”.

Reference: US9545386B2, “Methods of treating infectious diseases” (SLIPPERY ROCK UNIVERSITY FOUNDATION, INC., priority 2007, dated 2017)
